# Values joined by “and” are separate entries in the source; they are usually repeats but may differ in a detail not shown here. Equal values may be shown once.
# What was measured:
# [1] = system: Puccinia recondita f. Sp. Tritici; assay: Puccinia recondita f. sp. tritici / wheat / leaf disc preventative (brown rust); assay type: in vivo; conditions: foliar, 200 ppm in the applied formulation, wheat leaf segments cv. Kanzler, preventative (inoculated 1 day after application), compared to untreated control, read-out: disease control
# Method: Leaf disks or leaf segments of various plant species are cut from plants grown in a greenhouse. The cut leaf disks or segments are placed in multiwell plates (24-well format) onto water agar. The leaf disks are sprayed with a test solution before (preventative) or after (curative) inoculation. Compounds to be tested are prepared as DMSO solutions (max. 10 mg/ml) which are diluted to the appropriate concentration with 0.025% Tween20 just before spraying. The inoculated leaf disks or segments are incubated under defined conditions (temperature, relative humidity, light, etc.) according to the respective test system. A single evaluation of disease level is carried out 3 to 14 days after inoculation, depending on the pathosystem. Percent disease control relative to the untreated check leaf disks or segments is then calculated. Wheat leaf segments cv. Kanzler were placed on agar in multiwell plates (24-well format) and sprayed with the formulated test compound diluted in water. The leaf disks were inoculated with a spore suspension of the fungus 1 day after application. The inoculated leaf segments were incubated at 19° C. and 75% relative humidity (rh) under a light regime of 12 hours light/12 hours darkness in a climate cabinet and the activity of a compound was assessed as percent disease control compared to untreated when an appropriate level of disease damage appears in untreated check leaf segments (7 to 9 days after application).
# [2] = system: Puccinia recondita f. Sp. Tritici; assay: Puccinia recondita f. sp. tritici / wheat / leaf disc curative (brown rust); assay type: in vivo; conditions: foliar, 24 h, 200 ppm in the applied formulation, wheat leaf segments cv. Kanzler, curative (applied 1 day after inoculation), compared to untreated control, read-out: disease control
# Method: Leaf disks or leaf segments of various plant species are cut from plants grown in a greenhouse. The cut leaf disks or segments are placed in multiwell plates (24-well format) onto water agar. The leaf disks are sprayed with a test solution before (preventative) or after (curative) inoculation. Compounds to be tested are prepared as DMSO solutions (max. 10 mg/ml) which are diluted to the appropriate concentration with 0.025% Tween20 just before spraying. The inoculated leaf disks or segments are incubated under defined conditions (temperature, relative humidity, light, etc.) according to the respective test system. A single evaluation of disease level is carried out 3 to 14 days after inoculation, depending on the pathosystem. Percent disease control relative to the untreated check leaf disks or segments is then calculated. Wheat leaf segments cv. Kanzler are placed on agar in multiwell plates (24-well format). The leaf segments are then inoculated with a spore suspension of the fungus. Plates were stored in darkness at 19° C. and 75% relative humidity. The formulated test compound diluted in water was applied 1 day after inoculation. The leaf segments were incubated at 19° C. and 75% relative humidity under a light regime of 12 hours light/12 hours darkness in a climate cabinet and the activity of a compound was assessed as percent disease control compared to untreated when an appropriate level of disease damage appears in untreated check leaf segments (6 to 8 days after application).
# [3] = system: Phakopsora pachyrhizi; assay: Phakopsora pachyrhizi / soybean / leaf disc preventative (Asian soybean rust); assay type: in vivo; conditions: foliar, 200 ppm in the applied formulation, soybean leaf disks, preventative (inoculated 1 day after application), compared to untreated control, read-out: disease control
# Method: Leaf disks or leaf segments of various plant species are cut from plants grown in a greenhouse. The cut leaf disks or segments are placed in multiwell plates (24-well format) onto water agar. The leaf disks are sprayed with a test solution before (preventative) or after (curative) inoculation. Compounds to be tested are prepared as DMSO solutions (max. 10 mg/ml) which are diluted to the appropriate concentration with 0.025% Tween20 just before spraying. The inoculated leaf disks or segments are incubated under defined conditions (temperature, relative humidity, light, etc.) according to the respective test system. A single evaluation of disease level is carried out 3 to 14 days after inoculation, depending on the pathosystem. Percent disease control relative to the untreated check leaf disks or segments is then calculated. Soybean leaf disks are placed on water agar in multiwell plates (24-well format) and sprayed with the formulated test compound diluted in water. One day after application leaf discs are inoculated by spraying a spore suspension on the lower leaf surface. After an incubation period in a climate cabinet of 24-36 hours in darkness at 20° C. and 75% rh leaf disc are kept at 20° C. with 12 h light/day and 75% rh. The activity of a compound is assessed as percent disease control compared to untreated when an appropriate level of disease damage appears in untreated check leaf disks (12 to 14 days after application).
# [4] = system: Glomerella laqenarium (Colletotrichum laqenarium); assay: Glomerella lagenarium liquid culture / cucumber / preventative (anthracnose); assay type: cell-based; conditions: 20 ppm in the applied formulation, liquid culture in PDB, growth inhibition measured photometrically 3 to 4 days after application, compared to untreated control, read-out: disease control
# Method: Mycelia fragments or conidia suspensions of a fungus prepared either freshly from liquid cultures of the fungus or from cryogenic storage, are directly mixed into nutrient broth. DMSO solutions of the test compound (max. 10 mg/ml) are diluted with 0.025% Tween20 by a factor of 50 and 10 μl of this solution is pipetted into a microtiter plate (96-well format). The nutrient broth containing the fungal spores/mycelia fragments is then added to give an end concentration of the tested compound. The test plates are incubated in the dark at 24° C. and 96% relative humidity. The inhibition of fungal growth is determined photometrically after 2 to 7 days, depending on the pathosystem, and percent antifungal activity relative to the untreated check is calculated. Conidia of the fungus from cryogenic storage are directly mixed into nutrient broth (PDB—potato dextrose broth). After placing a (DMSO) solution of test compound into a microtiter plate (96-well format), the nutrient broth containing the fungal spores is added. The test plates are incubated at 24° C. and the inhibition of growth is measured photometrically 3 to 4 days after application.
SMILES,pest or weed control at 200 ppm [1],pest or weed control at 200 ppm [2],pest or weed control at 200 ppm [3],inhibition of growth at 20 ppm [4],melting point
"CC1(C)CON=C1OCc1ccc(-c2noc(C(F)(F)F)n2)cc1 [Compound 1.1, 3-[4-[(4,4-dimethyl-5H-isoxazol-3-yl)oxymethyl]phenyl]-5-(trifluoromethyl)-1,2,4-oxadiazole]",≥ 80%,≥ 80%,≥ 80%,≥ 80%,50.2 to 51.8 °C
"FC(F)(F)c1nc(-c2ccc(COC3=NOCC3)cc2)no1 [Compound 1.2, 3-[4-(4,5-dihydroisoxazol-3-yloxymethyl)phenyl]-5-(trifluoromethyl)-1,2,4-oxadiazole]",≥ 80%,≥ 80%,≥ 80%,≥ 80%,97 to 101 °C and 97 to 100.9 °C
"CC1(C)CC(OCc2ccc(-c3noc(C(F)(F)F)n3)cc2)=NO1 [Compound 1.3, 3-[4-[(5,5-dimethyl-4H-isoxazol-3-yl)oxymethyl]phenyl]-5-(trifluoromethyl)-1,2,4-oxadiazole]",,,≥ 80%,≥ 80%,107.9 to 108.6 °C
"FC(F)(F)c1nc(-c2ccc(COc3ccon3)cc2)no1 [Compound 1.4, 3-[4-(isoxazol-3-yloxymethyl)phenyl]-5-(trifluoromethyl)-1,2,4-oxadiazole]",≥ 80%,≥ 80%,≥ 80%,≥ 80%,61.8 to 64.4 °C
"Cc1cc(OCc2ccc(-c3noc(C(F)(F)F)n3)cc2)no1 [Compound 1.5, 3-[4-[(5-methylisoxazol-3-yl)oxymethyl]phenyl]-5-(trifluoromethyl)-1,2,4-oxadiazole]",≥ 80%,≥ 80%,≥ 80%,≥ 80%,81.2 to 82.6 °C
"Cn1nnnc1OCc1ccc(-c2noc(C(F)(F)F)n2)cc1 [Compound 1.8, 3-[4-[(1-methyltetrazol-5-yl)oxymethyl]phenyl]-5-(trifluoromethyl)-1,2,4-oxadiazole]",≥ 80%,≥ 80%,≥ 80%,≥ 80%,113.3 to 114.2 °C
"Fc1ccccc1OCc1ccc(-c2noc(C(F)(F)F)n2)cc1 [Compound 1.11, 3-[4-[(2-fluorophenoxy)methyl]phenyl]-5-(trifluoromethyl)-1,2,4-oxadiazole]",≥ 80%,≥ 80%,≥ 80%,≥ 80%,108 to 110 °C
"Fc1cc(COC2=NOCC2)ccc1-c1noc(C(F)(F)F)n1 [Compound 1.13, 3-[4-(4,5-dihydroisoxazol-3-yloxymethyl)-2-fluoro-phenyl]-5-(trifluoromethyl)-1,2,4-oxadiazole]",≥ 80%,≥ 80%,≥ 80%,≥ 80%,
"Fc1ccc(OCc2ccc(-c3noc(C(F)(F)F)n3)cc2)nc1 [Compound 1.16, 3-[4-[(5-fluoro-2-pyridyl)oxymethyl]phenyl]-5-(trifluoromethyl)-1,2,4-oxadiazole]",,,≥ 80%,,84 to 86 °C
"Cn1ccc(OCc2ccc(-c3noc(C(F)(F)F)n3)cc2)n1 [Compound 1.17, 3-[4-[(1-methylpyrazol-3-yl)oxymethyl]phenyl]-5-(trifluoromethyl)-1,2,4-oxadiazole]",≥ 80%,≥ 80%,≥ 80%,≥ 80%,84.9 to 87.8 °C
"CC(=O)n1ccc(OCc2ccc(-c3noc(C(F)(F)F)n3)cc2)n1 [Compound 1.18, 1-[3-[[4-[5-(trifluoromethyl)-1,2,4-oxadiazol-3-yl]phenyl]methoxy]pyrazol-1-yl]ethanone]",≥ 80%,≥ 80%,≥ 80%,≥ 80%,86.1 to 87.3 °C
"Cc1cc(OCc2ccc(-c3noc(C(F)(F)F)n3)cc2)n[nH]1 [Compound 1.19, 3-[4-[(5-methyl-1H-pyrazol-3-yl)oxymethyl]phenyl]-5-(trifluoromethyl)-1,2,4-oxadiazole]",≥ 80%,≥ 80%,≥ 80%,≥ 80%,137.4 to 141.8 °C
"CC(Oc1nnnn1C)c1ccc(-c2noc(C(F)(F)F)n2)cc1 (stereo not drawn) [Compound 1.22, 3-[4-[1-(1-methyltetrazol-5-yl)oxyethyl]phenyl]-5-(trifluoromethyl)-1,2,4-oxadiazole]",≥ 80%,≥ 80%,≥ 80%,≥ 80%,104 to 106 °C
"CON=COCc1ccc(-c2noc(C(F)(F)F)n2)cc1 [Compound 1.23, [4-[5-(trifluoromethyl)-1,2,4-oxadiazol-3-yl]phenyl]methyl N-methoxymethanimidate]",≥ 80%,≥ 80%,≥ 80%,≥ 80%,
"CN(C)C(=O)OCc1ccc(-c2noc(C(F)(F)F)n2)cc1 [Compound 3.1, [4-[5-(trifluoromethyl)-1,2,4-oxadiazol-3-yl]phenyl]methyl N,N-dimethylcarbamate]",≥ 80%,≥ 80%,≥ 80%,≥ 80%,95 to 97 °C
"O=C(NC1CC1)OCc1ccc(-c2noc(C(F)(F)F)n2)cc1 [Compound 3.2, [4-[5-(trifluoromethyl)-1,2,4-oxadiazol-3-yl]phenyl]methyl N-cyclopropylcarbamate]",≥ 80%,≥ 80%,≥ 80%,≥ 80%,
"C/C(=N/OCc1ccc(-c2noc(C(F)(F)F)n2)cc1)N1CCOCC1 [Compound 4.3, (Z)-1-morpholino-N-[[4-[5-(trifluoromethyl)-1,2,4-oxadiazol-3-yl]phenyl]methoxy]ethanimine]",≥ 80%,,≥ 80%,≥ 80%,
